Test results taken from ChEMBL document CHEMBL5576056, “Design, synthesis and biological evaluation of novel quinazoline derivatives as immune checkpoint inhibitors” (Bioorg Med Chem Lett, 2024).
The source made the active and inactive calls. The calls are words filed in the database; no cut-off is given here.

Assays:
[1] = tested on: A2780; assay: Antiproliferative activity against human A2780 cells assessed as cell viability at 50 uM incubated for 72 hrs by CCK8 assay; type: functional; details: read-out: Activity
[2] = tested on: A2780; assay: Antiproliferative activity against human A2780 cells assessed as cell viability incubated for 72 hrs by CCK8 assay; type: functional, cell-based; details: A2780, 72 h
[3] = Cytotoxicity against HK-2 cells; type: toxicity, cell-based; details: human
[4] = Cytotoxicity against non-cancerous fallopian tube ovarian cell (unknown origin); type: toxicity, cell-based; details: non-cancerous fallopian tube ovarian cells
[5] = tested on: A2780; assay: Induction of apoptosis in human A2780 cells assessed as increase in cleaved caspase-3 level at IC50 concentration incubated for 72 hrs by immunoblotting analysis; type: functional, cell-based
[6] = tested on: A2780; assay: Induction of apoptosis in human A2780 cells assessed as increase in cleaved PARP level at IC50 concentration incubated for 72 hrs by immunoblotting analysis; type: functional, cell-based
[7] = tested on: A2780; assay: Induction of apoptosis in human A2780 cells assessed as increase in cytochrome C release at IC50 concentration incubated for 72 hrs by immunoblotting analysis; type: functional, cell-based
[8] = tested on: A2780; assay: Induction of apoptosis in human A2780 cells assessed as increase in cleaved caspase-8 level at IC50 concentration incubated for 72 hrs by immunoblotting analysis; type: functional, cell-based
[9] = tested on: A2780; assay: Induction of apoptosis in human A2780 cells assessed as increase in cleaved caspase-9 level at IC50 concentration incubated for 72 hrs by immunoblotting analysis; type: functional, cell-based
[10] = tested on: A2780; assay: Reduction in IDO1 level in human A2780 cells at IC50 concentration incubated for 72 hrs by immunoblotting analysis; type: functional, cell-based
[11] = tested on: A2780; assay: Reduction in PD-L1 expression in human A2780 cells at IC50 concentration incubated for 72 hrs by immunoblotting analysis; type: functional, cell-based
[12] = tested on: A2780; assay: Inhibition of tumor sphere formation in human A2780 cells at IC50 concentration; type: functional, cell-based
[13] = tested on: A2780; assay: Downregulation of Sox2 expression in human A2780 cells at IC50 concentration; type: functional, cell-based
[14] = tested on: A2780; assay: Downregulation of CD133 expression in human A2780 cells at IC50 concentration; type: functional, cell-based
[15] = tested on: A2780; assay: Downregulation of Oct4 expression in human A2780 cells at IC50 concentration; type: functional, cell-based
[16] = tested on: A2780; assay: Downregulation of Nanog expression in human A2780 cells at IC50 concentration; type: functional, cell-based
[17] = tested on: A2780; assay: Induction of apoptosis in human A2780 cells assessed as increase in mature AIF expression at IC50 concentration incubated for 72 hrs by immunoblotting analysis; type: functional, cell-based
[18] = tested on: A2780; assay: Inhibition of tumor sphere formation in human A2780 cells assessed as reduction in diameter of the sphere at IC50 concentration (Rvb > 200 micrometer); type: functional
[19] = tested on: A2780; assay: Cytotoxicity against cisplatin resistant human A2780 cells assessed as reduction in cell viability at IC50 concentration incubated for 72 hrs in presence of cisplatin by CCK-8 method; type: functional, cell-based

| SMILES | viability at 50 µM [1] [%] | IC50 [2] [µM] | IC50 [3] [µM] | IC50 [4] [µM] | Activity [5] | Activity [6] | Activity [7] | Activity [8] | Activity [9] | Activity [10] | Activity [11] | inhibition [12] | Activity [13] | Activity [14] | Activity [15] | Activity [16] | Activity [17] | Activity [18] [um] | Activity [19] |
| --- | --- | --- | --- | --- | --- | --- | --- | --- | --- | --- | --- | --- | --- | --- | --- | --- | --- | --- | --- |
| O=C(Nc1cccc(Cl)c1)C1CCN(c2ncnc3ccccc23)CC1 | 22 | 12.2 | > 50 | > 50 | Active | Active | Active | Active | Active | Active | Active | Active | Active | Active | Active | Active |  |  |  |
| Nc1nonc1C(=NO)Nc1ccc(F)c(Cl)c1 |  | 14.9 | 30.8 | 18.4 |  |  |  |  |  |  |  |  |  |  |  |  |  |  |  |
| O=C(Nc1cccc(F)c1)C1CCN(c2ncnc3ccccc23)CC1 | 58 |  |  |  |  |  |  |  |  |  |  |  |  |  |  |  |  |  |  |
| O=C(Nc1cccc2c1OCCO2)C1CCN(c2ncnc3ccccc23)CC1 | 64 |  |  |  |  |  |  |  |  |  |  |  |  |  |  |  |  |  |  |
| COc1ccc(NC(=O)C2CCN(c3ncnc4ccccc34)CC2)c(OC)c1 | 60 |  |  |  |  |  |  |  |  |  |  |  |  |  |  |  |  |  |  |
| O=C(Nc1ccccc1Cl)C1CCN(c2ncnc3ccccc23)CC1 | 30 | 22.6 | > 50 | > 50 | Active | Active | Active | Active | Active | Active | Active | Active | Active | Active | Active | Active | Active |  |  |
| O=C(Nc1ccccc1)C1CCN(c2ncnc3ccccc23)CC1 | 42 | > 50 | > 50 | > 50 |  |  |  |  |  |  |  |  |  |  |  |  |  |  |  |
| O=C(Nc1ccc(F)c(Cl)c1)C1CCN(c2ncnc3ccccc23)CC1 | 53 |  |  |  |  |  |  |  |  |  |  |  |  |  |  |  |  |  |  |
| O=C(Nc1ccc(I)cc1F)C1CCN(c2ncnc3ccccc23)CC1 | 76 |  |  |  |  |  |  |  |  |  |  |  |  |  |  |  |  |  |  |
| COc1ccc(NC(=O)C2CCN(c3ncnc4ccccc34)CC2)cc1 | 27 | 9.91 | > 50 | > 50 | Active | Active | Active |  |  | Active | Active |  | inactive | Active |  | Active | Active | <200 |  |
| O=C(Nc1ccc([N+](=O)[O-])cc1)C1CCN(c2ncnc3ccccc23)CC1 | 33 | 4.95 | > 50 | > 50 | Active | Active | Active |  |  | Active | Active | Active | inactive | Active |  | Active | Active |  |  |
| O=C(Nc1ccc(Cl)cc1)C1CCN(c2ncnc3ccccc23)CC1 | 26 | 5.68 | > 50 | > 50 | Active | Active | Active | Active |  | Active | Active | Active | Active | Active | Active | Active |  |  | Active |
| O=C(Nc1ccc(F)cc1)C1CCN(c2ncnc3ccccc23)CC1 | 68 |  |  |  |  |  |  |  |  |  |  |  |  |  |  |  |  |  |  |
| O=C(Nc1ccc(Br)cc1)C1CCN(c2ncnc3ccccc23)CC1 | 28 | 10.8 | > 50 | > 50 |  |  |  | Active |  | Active | Active | Active | Active | Active | Active | Active | Active |  |  |
| O=C(Nc1ccccc1F)C1CCN(c2ncnc3ccccc23)CC1 | 52 |  |  |  |  |  |  |  |  |  |  |  |  |  |  |  |  |  |  |
